# What was measured:
# Trypanosoma cruzi [1] = assay: Increase in squalene biosynthesis in Trypanosoma cruzi tulahuen 2 epimastigotes at ID50 concentration per 8 x 10^6 cells/ml after 120 mins by HPLC analysis (Rvb=0.6 to 2.1 ug/ml); type: functional
# Trypanosoma cruzi [2] = assay: Ratio of ID50 for drug to ID50 for nifurtimox against Trypanosoma cruzi tulahuen 2 after 5 days; type: functional
# Trypanosoma cruzi [3] = assay: Antitrypanosomal activity against Trypanosoma cruzi tulahuen 2 after 5 days; type: functional; conditions: tulahuen 2, 120 h, read-out: ID50 (the source's name)
# Aspergillus niger = assay: Antifungal activity against Aspergillus niger ATCC 9029 after 48 hrs by broth microdilution technique; type: functional; conditions: ATCC 9029, 48 h
# Aspergillus fumigatus = assay: Antifungal activity against Aspergillus fumigatus ATCC 26934 after 48 hrs by broth microdilution technique; type: functional; conditions: ATCC 26934, 48 h
# [4] = tested on: Trichophyton mentagrophytes; assay: Antifungal activity against Trichophyton mentagrophytes ATCC 9972 after 48 hrs by broth microdilution technique; type: functional; conditions: ATCC 9972, 48 h
# Trichophyton rubrum = assay: Antifungal activity against Trichophyton rubrum C113 after 48 hrs by broth microdilution technique; type: functional; conditions: C113, 48 h
# Candida tropicalis = assay: Antifungal activity against Candida tropicalis C131-2000 after 48 hrs by broth microdilution technique; type: functional; conditions: C131-2000, 48 h
# Candida albicans = assay: Antifungal activity against Candida albicans ATCC 10231 after 48 hrs by broth microdilution technique; type: functional; conditions: ATCC 10231, 48 h
# Cryptococcus neoformans = assay: Antifungal activity against Cryptococcus neoformans ATCC 32264 after 48 hrs by broth microdilution technique; type: functional; conditions: ATCC 32264, 48 h
# Aspergillus flavus = assay: Antifungal activity against Aspergillus flavus ATCC 9170 after 48 hrs by broth microdilution technique; type: functional; conditions: ATCC 9170, 48 h
# Nannizzia gypsea = assay: Antifungal activity against Microsporum gypseum C 115 after 48 hrs by broth microdilution technique; type: functional; conditions: C 115, 48 h
# Saccharomyces cerevisiae = assay: Antifungal activity against Saccharomyces cerevisiae ATCC 9763 after 48 hrs by broth microdilution technique; type: functional; conditions: ATCC 9763, 48 h
# [5] = Selectivity index, ratio of IC50 for mouse J774 cells to ID50 for Trypanosoma cruzi tulahuen 2; type: toxicity, cell-based; conditions: J774 cells versus Trypanosoma cruzi Tulahuen 2, read-out: Selectivity Index
# Trypanosoma cruzi [6] = assay: Decrease in ergosterol biosynthesis in Trypanosoma cruzi tulahuen 2 epimastigotes at ID50 concentration per 8 x 10^6 cells/ml after 120 mins by HPLC analysis (Rvb=6.8 +/- 0.5 ug/ml); type: functional
# [7] = Cytotoxicity against mouse J774 cells after 48 hrs by MTT assay; type: cell-based; conditions: read-out: ID50
# Trypanosoma cruzi [8] = assay: Antitrypanosomal activity against Trypanosoma cruzi CL Brener after 5 days; type: functional; conditions: 120 h, read-out: ID50 (the source's name)
SMILES,Activity (Trypanosoma cruzi [1]),Ratio (Trypanosoma cruzi [2]),IC50 (Trypanosoma cruzi [3]),MIC (Aspergillus niger),MIC (Aspergillus fumigatus),MIC [4],MIC (Trichophyton rubrum),MIC (Candida tropicalis),MIC (Candida albicans),MIC (Cryptococcus neoformans),MIC (Aspergillus flavus),MIC (Nannizzia gypsea),MIC (Saccharomyces cerevisiae),selectivity ratio [5],Activity (Trypanosoma cruzi [6]),CC50 at 48 h [7],IC50 (Trypanosoma cruzi [8])
O=C(/C=C/c1ccc([N+](=O)[O-])o1)N1CCN(C/C=C/c2ccccc2)CC1,0.6 µg/mL,7,1 µM,–,–,–,–,–,–,–,–,–,–,–,–,–,–
C[C@@H]1[C@H](O)[C@@H](C)/C=C/C=C/C=C/C=C/C=C/C=C/C=C/[C@H](O[C@@H]2O[C@H](C)[C@@H](O)[C@H](N)[C@@H]2O)C[C@@H]2O[C@](O)(C[C@@H](O)C[C@@H](O)[C@H](O)CC[C@@H](O)C[C@@H](O)CC(=O)O[C@H]1C)C[C@H](O)[C@H]2C(=O)O [AMPHOTERICIN B],–,–,–,0.125 µg/mL,0.5 µg/mL,0.025 µg/mL,0.025 µg/mL,0.5 µg/mL,0.5 µg/mL,0.25 µg/mL,0.25 µg/mL,0.05 µg/mL,0.5 µg/mL,–,–,–,–
O=C(/C=C/c1ccc([N+](=O)[O-])o1)NCCO,0.6 µg/mL,–,5 µM,–,–,–,–,–,–,–,–,–,–,–,–,–,–
CN(C/C=C/C#CC(C)(C)C)Cc1cccc2ccccc12 [TERBINAFINE],12 µg/mL,–,–,0.5 µg/mL,0.5 µg/mL,0.075 µg/mL,0.075 µg/mL,1.56 µg/mL,0.78 µg/mL,0.25 µg/mL,0.5 µg/mL,0.125 µg/mL,0.5 µg/mL,19.9,2.7 µg/mL,339 µM,–
CC(=O)N1CCN(c2ccc(OCC3COC(Cn4ccnc4)(c4ccc(Cl)cc4Cl)O3)cc2)CC1 (configuration not stated) [KETOCONAZOLE],–,–,–,0.78 µg/mL,0.78 µg/mL,0.025 µg/mL,0.01 µg/mL,1.56 µg/mL,1.56 µg/mL,0.39 µg/mL,1.56 µg/mL,0.04 µg/mL,3.12 µg/mL,< 10,–,< 100 µM,–
CC1CS(=O)(=O)CCN1/N=C/c1ccc([N+](=O)[O-])o1 (configuration not stated) [NIFURTIMOX],0.6 µg/mL,–,–,–,–,–,–,–,–,–,–,–,–,41,–,316 µM,–
O=C(/C=C/c1ccco1)N1CCN(C/C=C/c2ccccc2)CC1,0.6 µg/mL,–,> 25 µM,–,–,–,–,–,–,–,–,–,–,–,–,–,–
C=CCNC(=S)N/N=C/C=C/c1ccc([N+](=O)[O-])o1,15.9 µg/mL,–,8.2 µM,> 250 µg/mL,> 250 µg/mL,> 250 µg/mL,> 250 µg/mL,> 250 µg/mL,> 250 µg/mL,> 250 µg/mL,> 250 µg/mL,> 250 µg/mL,> 250 µg/mL,24.4,5.5 µg/mL,200 µM,6.4 µM

# — ChEMBL document CHEMBL1152653, “5-Nitrofuranes and 5-nitrothiophenes with anti-Trypanosoma cruzi activity and ability to accumulate squalene” (Bioorg Med Chem, 2009)
